Results as given in ChEMBL document CHEMBL1201862, “PubChem BioAssay data set” (2004).
Activity calls are given as the source filed them.

Legend:
Cytochrome P450 2C9 [1] = target: T1, Cytochrome P450 2C9 (Homo sapiens, UniProt P11712)
Cytochrome P450 1A2 = target: T2, Cytochrome P450 1A2 (Homo sapiens, UniProt P05177);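 note: PubChem cytochrome P450 panel assay, CYP1A2 panel member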
T2 sequence (P05177 whole entry): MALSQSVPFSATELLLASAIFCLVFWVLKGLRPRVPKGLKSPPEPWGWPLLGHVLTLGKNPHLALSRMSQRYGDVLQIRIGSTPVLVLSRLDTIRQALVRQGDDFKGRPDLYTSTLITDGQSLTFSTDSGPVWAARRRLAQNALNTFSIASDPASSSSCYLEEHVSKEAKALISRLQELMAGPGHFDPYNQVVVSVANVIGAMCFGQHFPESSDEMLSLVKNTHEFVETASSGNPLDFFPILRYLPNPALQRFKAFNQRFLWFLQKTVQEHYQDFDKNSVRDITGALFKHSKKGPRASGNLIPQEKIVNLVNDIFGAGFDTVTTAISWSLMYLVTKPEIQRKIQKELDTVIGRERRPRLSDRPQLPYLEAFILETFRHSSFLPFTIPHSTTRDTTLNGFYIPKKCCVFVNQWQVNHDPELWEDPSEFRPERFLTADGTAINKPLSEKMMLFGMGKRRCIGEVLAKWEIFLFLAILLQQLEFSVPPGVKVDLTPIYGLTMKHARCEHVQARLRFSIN

Cytochrome P450 2D6 = Cytochrome P450 2D6 (Homo sapiens, UniProt P10635);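 note: CYP2D6 member of a cytochrome P450 panel assay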
[2] = viability of HCT116 lacking mutant beta-catenin – cell-based, human colon tumor, dose response (AID 1045); type: functional;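 note: HCT116 colon tumor cells with beta catenin knocked out; cells exposed to compound for 60 hours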
Cytochrome P450 3A4 [3] = target: T3, Cytochrome P450 3A4 (Homo sapiens, UniProt P08684);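 note: CYP3A4 tested as one member of a cytochrome P450 panel screen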
[4] = viability of PTEN-deleted HCT116 cells – cell-based, HCT116 PTEN knockout, dose response (AID 1047); type: functional;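 note: HCT116 colon tumor cells with PTEN knocked out; cells exposed to compound for 60 hours before readout; potency for loss of cell viability measured by luminescence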
Cytochrome P450 2C9 [5] = target: T1, Cytochrome P450 2C9; remark: listed apart in the source
[6] = Luminescence Cell-Based Dose Confirmation HTS to Identify Inhibitors of Platelet Dense Granule Release. [Related pubchem assays: 1663 (Primary HTS), 1678 (Summary of Project)]; type: functional
[7] = target: Luciferin 4-monooxygenase (Photinus pyralis, UniProt P08659); assay: inhibition of purified Photinus pyralis luciferase – biochemical, luminescence, dose response (AID 1891)
H4 = assay: Luminescence Cell-Based Dose Response HTS to Identify Activators of 5'UTR Stem-Loop Driven Prion Protein mRNA Translation in H4 Neuroglioblastoma Cells. [Related pubchem assays: 1829 (Project Summary), 1814 (Primary HTS)]; type: functional; details: Homo sapiens
[8] = Luminescence Cell-Based Dose Response HTS to Identify Activators of Luciferase Translation or Activity in H4 […] Cells. [Related pubchem assays: 1829 (Project Summary), 1814 (Primary HTS)]; type: functional
[9] = Luminescence Cell-Based Dose Confirmation HTS to Identify Activators of 5'UTR Stem-Loop Driven Alpha-Synuclein mRNA Translation in H4 Neuroglioblastoma Cells. [Related pubchem assays: 1829 (Project Summary), 1814 (Primary HTS)]; type: functional
Cytochrome P450 3A4 [10] = target: T3, Cytochrome P450 3A4; remark: listed apart in the source
Cytochrome P450 2C19 = Cytochrome P450 2C19 (Homo sapiens, UniProt P33261); assay: Cytochrome panel assay with activity outcomes. Panel member name: p450-cyp2c19 Compounds with AC50 equal or less than 10 uM are considered active; type: functional; details: read-out: AC50
[11] = target: T4, Polyadenylate-binding protein 1 (Homo sapiens, UniProt P11940); assay: MLLE binding blockers, Cy5 peptide tracer – biochemical, fluorescence polarization, Cy5-PAM2 peptide, secondary, miRNA deadenylation inhibitor project, dose response (AID 602260); type: functional; details: read-out: IC50_Mean
[12] = target: T5, Zinc finger protein mex-5 (Caenorhabditis elegans, UniProt Q9XUB2); assay: potency of MEX-5 RNA-binding blockers – biochemical, C. elegans, fluorescence polarization, dose response (AID 1960)
T5 sequence (Q9XUB2 whole entry): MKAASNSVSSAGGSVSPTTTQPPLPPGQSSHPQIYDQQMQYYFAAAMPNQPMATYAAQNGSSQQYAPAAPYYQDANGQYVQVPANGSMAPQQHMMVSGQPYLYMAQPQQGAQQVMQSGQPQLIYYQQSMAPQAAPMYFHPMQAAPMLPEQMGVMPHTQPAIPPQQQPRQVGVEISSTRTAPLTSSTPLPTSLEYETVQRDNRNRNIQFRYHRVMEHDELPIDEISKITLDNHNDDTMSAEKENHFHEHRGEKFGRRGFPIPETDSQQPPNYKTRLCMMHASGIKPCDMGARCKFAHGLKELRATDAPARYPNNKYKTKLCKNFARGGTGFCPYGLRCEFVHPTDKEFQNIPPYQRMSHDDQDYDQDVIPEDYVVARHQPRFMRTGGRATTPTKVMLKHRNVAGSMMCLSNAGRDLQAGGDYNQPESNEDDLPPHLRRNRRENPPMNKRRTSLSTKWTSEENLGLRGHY

[13] = target: T4, Polyadenylate-binding protein 1; assay: MLLE domain peptide-binding blockers, IC50 – biochemical, fluorescence polarization, FITC-PAM2 peptide, dose response (AID 602259); type: functional; details: read-out: IC50_Mean
[14] = target: T6, RNA-binding protein pos-1 (Caenorhabditis elegans, UniProt G5EF15); assay: disruptors of C. elegans POS-1 RNA interaction – biochemical, fluorescence polarization, dose response (AID 1964);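 note: purified POS-1 fused to maltose binding protein made in E. coli; potency of compounds blocking POS-1 binding to fluorescent RNA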
T6 sequence (G5EF15 whole entry): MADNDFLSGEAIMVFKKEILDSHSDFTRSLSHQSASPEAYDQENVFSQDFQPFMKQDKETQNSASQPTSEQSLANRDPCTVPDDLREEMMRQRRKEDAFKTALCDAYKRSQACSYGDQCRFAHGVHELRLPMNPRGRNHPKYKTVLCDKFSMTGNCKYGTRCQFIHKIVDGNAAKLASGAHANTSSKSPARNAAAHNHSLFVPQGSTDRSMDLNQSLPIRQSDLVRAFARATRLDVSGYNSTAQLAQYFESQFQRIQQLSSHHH

Leucine aminopeptidase = target: T7, Leucine aminopeptidase (Plasmodium falciparum 3D7, UniProt Q8IL11); assay: P. falciparum M17LAP inhibitors, primary screen, biochemical, fluorogenic H-Leu-NHMec substrate, 1536-well (AID 1619); type: functional
T7 sequence (Q8IL11 whole entry): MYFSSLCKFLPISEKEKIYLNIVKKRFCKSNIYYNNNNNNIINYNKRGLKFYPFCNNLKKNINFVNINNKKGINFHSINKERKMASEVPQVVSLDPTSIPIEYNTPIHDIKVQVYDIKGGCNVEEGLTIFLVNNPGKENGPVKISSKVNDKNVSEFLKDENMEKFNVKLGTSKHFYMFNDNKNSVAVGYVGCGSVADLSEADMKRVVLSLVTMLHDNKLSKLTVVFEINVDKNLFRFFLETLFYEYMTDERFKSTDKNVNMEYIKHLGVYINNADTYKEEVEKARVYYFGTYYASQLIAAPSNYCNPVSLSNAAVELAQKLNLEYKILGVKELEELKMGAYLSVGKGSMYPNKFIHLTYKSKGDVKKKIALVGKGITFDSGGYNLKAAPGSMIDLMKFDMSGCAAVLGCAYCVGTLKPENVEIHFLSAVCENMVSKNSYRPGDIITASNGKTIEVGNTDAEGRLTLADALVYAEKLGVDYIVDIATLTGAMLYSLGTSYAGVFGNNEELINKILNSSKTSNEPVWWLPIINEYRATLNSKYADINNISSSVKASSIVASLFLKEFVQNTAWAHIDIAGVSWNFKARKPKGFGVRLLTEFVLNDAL

T3 sequence (P08684 whole entry): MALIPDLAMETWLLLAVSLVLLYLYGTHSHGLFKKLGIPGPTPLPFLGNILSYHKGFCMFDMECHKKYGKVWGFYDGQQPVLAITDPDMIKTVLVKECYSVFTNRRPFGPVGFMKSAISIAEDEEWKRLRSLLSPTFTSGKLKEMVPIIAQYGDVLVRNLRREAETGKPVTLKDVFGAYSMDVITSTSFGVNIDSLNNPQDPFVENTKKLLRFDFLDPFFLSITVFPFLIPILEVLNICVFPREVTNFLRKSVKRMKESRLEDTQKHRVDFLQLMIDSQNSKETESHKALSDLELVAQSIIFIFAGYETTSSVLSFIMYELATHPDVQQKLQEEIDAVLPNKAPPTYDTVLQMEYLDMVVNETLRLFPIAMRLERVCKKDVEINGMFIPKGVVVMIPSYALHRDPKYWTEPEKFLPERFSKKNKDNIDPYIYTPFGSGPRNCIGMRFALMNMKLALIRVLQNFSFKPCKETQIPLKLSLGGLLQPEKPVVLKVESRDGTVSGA
T1 sequence (P11712 whole entry): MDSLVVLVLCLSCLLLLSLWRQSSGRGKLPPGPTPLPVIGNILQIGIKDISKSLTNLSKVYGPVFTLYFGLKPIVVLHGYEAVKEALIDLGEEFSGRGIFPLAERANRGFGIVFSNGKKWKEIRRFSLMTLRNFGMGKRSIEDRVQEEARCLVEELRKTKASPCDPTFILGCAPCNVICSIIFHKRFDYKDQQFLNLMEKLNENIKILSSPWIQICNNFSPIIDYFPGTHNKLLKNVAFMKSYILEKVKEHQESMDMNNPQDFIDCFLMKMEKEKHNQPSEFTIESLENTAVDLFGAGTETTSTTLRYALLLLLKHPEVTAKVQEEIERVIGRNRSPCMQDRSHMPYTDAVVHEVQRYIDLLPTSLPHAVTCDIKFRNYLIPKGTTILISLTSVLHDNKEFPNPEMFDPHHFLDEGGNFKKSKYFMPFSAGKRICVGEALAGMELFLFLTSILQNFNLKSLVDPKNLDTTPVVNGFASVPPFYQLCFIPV
Chain of Luciferin 4-monooxygenase (P08659 whole entry): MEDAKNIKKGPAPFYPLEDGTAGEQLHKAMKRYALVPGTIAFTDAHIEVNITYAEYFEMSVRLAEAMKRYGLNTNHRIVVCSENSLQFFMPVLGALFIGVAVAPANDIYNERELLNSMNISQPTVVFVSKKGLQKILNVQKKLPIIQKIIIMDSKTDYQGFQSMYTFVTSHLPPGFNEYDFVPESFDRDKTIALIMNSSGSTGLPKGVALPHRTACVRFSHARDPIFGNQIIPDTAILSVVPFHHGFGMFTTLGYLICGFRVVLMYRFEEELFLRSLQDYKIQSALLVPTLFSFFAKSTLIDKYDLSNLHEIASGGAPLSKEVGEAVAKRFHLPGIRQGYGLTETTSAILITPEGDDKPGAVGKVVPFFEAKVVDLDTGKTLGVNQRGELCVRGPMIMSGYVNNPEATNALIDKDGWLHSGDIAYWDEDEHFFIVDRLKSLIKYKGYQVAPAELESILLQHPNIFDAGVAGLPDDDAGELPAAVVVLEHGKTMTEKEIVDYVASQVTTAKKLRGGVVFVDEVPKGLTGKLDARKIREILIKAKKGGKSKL
Chain of Cytochrome P450 2D6 (P10635 whole entry): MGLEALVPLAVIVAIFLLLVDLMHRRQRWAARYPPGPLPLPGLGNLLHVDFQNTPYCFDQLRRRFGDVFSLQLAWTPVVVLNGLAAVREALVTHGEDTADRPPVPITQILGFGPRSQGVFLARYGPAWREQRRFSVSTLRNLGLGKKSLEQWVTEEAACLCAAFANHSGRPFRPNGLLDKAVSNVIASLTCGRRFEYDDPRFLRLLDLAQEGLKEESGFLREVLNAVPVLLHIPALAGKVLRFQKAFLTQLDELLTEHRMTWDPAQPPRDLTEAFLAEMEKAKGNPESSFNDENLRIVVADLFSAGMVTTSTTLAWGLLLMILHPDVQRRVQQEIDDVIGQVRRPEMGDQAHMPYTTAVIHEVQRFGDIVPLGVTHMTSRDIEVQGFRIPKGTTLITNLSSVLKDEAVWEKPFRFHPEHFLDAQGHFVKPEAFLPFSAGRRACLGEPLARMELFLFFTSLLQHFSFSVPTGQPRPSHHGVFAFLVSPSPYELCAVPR
Chain of Cytochrome P450 2C19 (P33261 whole entry): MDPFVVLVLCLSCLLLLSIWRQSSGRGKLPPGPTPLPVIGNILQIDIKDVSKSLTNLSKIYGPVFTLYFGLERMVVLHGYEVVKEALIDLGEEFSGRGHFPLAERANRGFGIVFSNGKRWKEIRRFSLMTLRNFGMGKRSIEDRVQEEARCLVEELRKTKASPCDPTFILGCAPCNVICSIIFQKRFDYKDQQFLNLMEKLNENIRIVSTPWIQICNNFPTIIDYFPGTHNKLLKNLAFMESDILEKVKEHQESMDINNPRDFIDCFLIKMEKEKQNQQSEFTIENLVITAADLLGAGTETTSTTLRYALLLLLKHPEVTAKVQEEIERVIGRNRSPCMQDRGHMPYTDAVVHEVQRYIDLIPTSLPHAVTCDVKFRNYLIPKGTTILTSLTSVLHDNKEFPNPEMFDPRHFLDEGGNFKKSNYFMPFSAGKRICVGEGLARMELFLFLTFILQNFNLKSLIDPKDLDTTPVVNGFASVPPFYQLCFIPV
T4 sequence (P11940 whole entry): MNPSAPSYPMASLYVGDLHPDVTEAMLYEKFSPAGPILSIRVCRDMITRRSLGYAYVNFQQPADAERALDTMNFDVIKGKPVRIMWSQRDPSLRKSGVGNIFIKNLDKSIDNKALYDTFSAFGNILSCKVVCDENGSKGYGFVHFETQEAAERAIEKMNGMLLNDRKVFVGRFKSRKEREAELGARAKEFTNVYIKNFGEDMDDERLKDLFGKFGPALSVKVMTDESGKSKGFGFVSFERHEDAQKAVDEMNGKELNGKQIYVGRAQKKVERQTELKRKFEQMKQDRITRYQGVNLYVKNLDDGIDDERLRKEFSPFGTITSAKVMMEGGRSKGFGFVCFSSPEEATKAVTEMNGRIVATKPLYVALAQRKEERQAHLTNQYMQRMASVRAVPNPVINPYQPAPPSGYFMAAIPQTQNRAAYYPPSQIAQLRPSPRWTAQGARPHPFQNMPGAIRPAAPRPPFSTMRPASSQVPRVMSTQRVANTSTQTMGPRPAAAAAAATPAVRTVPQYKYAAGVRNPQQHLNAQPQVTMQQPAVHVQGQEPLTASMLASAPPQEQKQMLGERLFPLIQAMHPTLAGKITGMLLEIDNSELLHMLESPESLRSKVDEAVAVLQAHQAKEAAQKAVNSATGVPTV

For O=C(NCc1cccs1)C1CCN(S(=O)(=O)c2cccc3nsnc23)CC1, the AC50 (Cytochrome P450 2C9 [1]) was “inconclusive”, the AC50 (Cytochrome P450 1A2) was 0.158 µM (inconclusive) and the AC50 (Cytochrome P450 2D6) was 6.31 µM (inconclusive).
With CO/N=C/c1ccc(N2CCN(C(=O)c3ccc(Cl)cc3Cl)CC2)c([N+](=O)[O-])c1 the EC50 [2] was 22.3 µM (active), the AC50 (Cytochrome P450 3A4 [3]) was “inconclusive” and the EC50 [4] was 20.3 µM (active).
For CSc1nc2ccccc2cc1/C=C(\C#N)c1ccccc1, the AC50 (Cytochrome P450 3A4 [3]) was “inconclusive”.
With Cn1c(=O)c2cc(S(=O)(=O)NCCC(=O)NCCc3ccc(Cl)cc3)ccc2n(C)c1=O the AC50 (Cytochrome P450 2C9 [1]) was “inconclusive” and the AC50 (Cytochrome P450 1A2) was 0.0398 µM (inconclusive).
With CCN(CC)CCO[C@H]1CC[C@@]2(C)C(=CC[C@@H]3[C@H]2CC[C@]2(C)C(=O)CC[C@H]32)C1 the AC50 (Cytochrome P450 3A4 [3]) was “inconclusive”.
With O=C(NC1CCN(Cc2ccccc2)CC1)c1ccc(I)cc1 the AC50 (Cytochrome P450 1A2) was 39.8 µM (inconclusive), the AC50 (Cytochrome P450 3A4 [3]) was “inconclusive” and the AC50 (Cytochrome P450 2C9 [5]) was 39.8 µM (inconclusive).
For CC(C)c1ccc(-c2cc(C(=O)NN3CCN(C)CC3)c3ccccc3n2)cc1, the EC50 [6] was 5.93 µM (active), the EC50 [7] was 18.2 µM (active) and the EC50 (H4) was 9.4 µM (active). For the same compound, the EC50 [8] was 3.27 µM (active) and the EC50 [9] was 3.59 µM (active).
With Cc1ccc(O)c(N=Nc2ccccc2)n1 the EC50 [6] was < 0.701 µM (active) and the EC50 [7] was 1.2 µM (active).
With Cc1ccccc1-c1cc(NCCN2CCOCC2)ncn1 the AC50 (Cytochrome P450 1A2) was 31.6 µM (inconclusive) and the AC50 (Cytochrome P450 3A4 [3]) was “inconclusive”.
For O=C(CCNC(=O)c1ccc(Br)o1)NCc1ccccn1, the AC50 (Cytochrome P450 2C9 [1]) was “inconclusive”, the AC50 (Cytochrome P450 1A2) was 14.1 µM (inconclusive) and the AC50 (Cytochrome P450 3A4 [10]) was 14.1 µM (inconclusive). The AC50 (Cytochrome P450 2C19) was 17.8 µM (inconclusive).
For CCS(=O)(=O)N1CCC[C@H]2CN3CCc4cc(OC)ccc4[C@@H]3C[C@@H]21, the AC50 (Cytochrome P450 2C9 [1]) was “inconclusive” and the AC50 (Cytochrome P450 1A2) was 31.6 µM (inconclusive).
With Oc1cccc(/C=N/Nc2nn3cnnc3c3ccccc23)c1 the EC50 [6] was 18.8 µM (active) and the EC50 [7] was 5.06 µM (active).
In the case of Cc1cccc(C(=N)NOC(=O)c2ccccc2Cl)c1, the EC50 [6] is reported as 3.84 µM (active) and the EC50 [7] is reported as 1.96 µM (active).
In the case of Cc1ccc(N=C(S)c2ccc3ccccc3n2)c(C)c1, the IC50 [11] is reported as > 66 µM (inactive), the EC50 [6] is reported as > 112 µM (not active) and the EC50 [7] is reported as > 112 µM (not active). The EC50 [12] was > 300 µM (not active), the IC50 [13] was > 66 µM (inactive) and the EC50 [14] was > 300 µM (not active).
In the case of C[C@@]12CC[C@@H]3[C@@H](CC[C@H]4C[C@@H](O)CC[C@]43C)[C@H]1CC[C@@H]2c1cc(C(F)(F)F)[nH]n1, the AC50 (Cytochrome P450 3A4 [3]) is reported as “inconclusive” and the AC50 (Cytochrome P450 2C9 [5]) is reported as 7.94 µM (inconclusive).
With Cc1ccccc1-n1c(=O)cc(N2CC(C)OC(C)C2)[nH]c1=O (stereo unspecified) the AC50 (Cytochrome P450 3A4 [3]) was “inconclusive”.
In the case of C=CC[C@H](N)C(=O)O, the AC50 (Cytochrome P450 3A4 [3]) is reported as “inconclusive”.
For O=C(OCC(=O)N1CCCC1)c1ccccc1OCc1ccccc1, the IC50 (Leucine aminopeptidase) was 4.38 µM (active).
With O=C(O)CCN1C(=O)CC(N2C(=O)/C(=C/c3ccc(Cl)cc3)SC2=S)C1=O (stereo unspecified) the IC50 (Leucine aminopeptidase) was 22.5 µM (active).
For CCC(=O)Nc1cccc(-c2nc3ccccc3c(=O)o2)c1, the AC50 (Cytochrome P450 2C9 [1]) was “inconclusive”, the AC50 (Cytochrome P450 2D6) was 31.6 µM (inconclusive) and the AC50 (Cytochrome P450 3A4 [10]) was 28.2 µM (inconclusive). The AC50 (Cytochrome P450 2C19) was 39.8 µM (inconclusive).
For CC1(C)CC(N2CCC(=O)NC2=S)CC(C)(C)N1, the EC50 [6] was > 112 µM (not active) and the EC50 [7] was > 112 µM (not active).
With Cc1c(Nc2nc3ccccc3nc2NS(=O)(=O)c2cccc(Cl)c2)c(=O)n(-c2ccccc2)n1C the IC50 (Leucine aminopeptidase) was 21.3 µM (active).
